The subject of test [1] is Arabidopsis thaliana dNK enzyme (AT-dCK/dGK). In words: Deoxyribonucleoside kinase activity in extract of KY895 transformed with pGEX-2T-AT-dCK/dGK. As to conditions: for ability to phosphorylate the deoxyribonucleoside (in words): pGEX-2T-AT-dCK/dGK. Type of test: biochemical. On the procedure:
(§1) Transformed KY895 strains were grown to an OD600 nm of 0.5-0.6 in LB/Ampicillin (100 μg/ml) medium at 37° C., and protein expression was induced by addition of 100 μM IPTG. The cells were further grown for 4 hours at 25° C. and subsequently harvested by centrifugation.
(§2) Pellets were stored at −80° C. until activity testing. Pellets were submitted to brief sonification in extraction buffer (50 mM Tris/HCl pH 7.5, 1 mM DTT, 10% (v/v) glycerol, 1% (v/v) Triton X-100, protease inhibitor cocktail (Complete™ from Roche Diagnostics).
(§3) Deoxyribonucleoside kinase activities were determined in the KY895 extracts by initial velocity measurements based on four time samples by the DE-81 filter paper assay using tritium-labelled nucleoside substrates. 4 to 20 μg extracts were used in the assays.
(§4) The four natural deoxyribonucleosides were tested at a fixed concentration of 100 μM. The highest specific activity in each extract was set to 100%.

The test system of test [2] is tomato dNK enzyme (TOM-dCK/dGK). Nature of the test: Deoxyribonucleoside kinase activity in extract of KY895 transformed with pGEX-2T-TOM-dCK/dGK. As to conditions: for ability to phosphorylate the deoxyribonucleoside (in words): pGEX-2T-TOM-dCK/dGK. Type of test: biochemical, Lycopersicum esculentum. On the procedure:
as §1, §2, §3, §4

For test [3], the system named is N-terminally deleted tomato dNK enzyme (TOM-ΔNdCK/dGK). In words: Deoxyribonucleoside kinase activity in extract of KY895 transformed with pGEX-2T-TOM-ΔNdCK/dGK. Type of test: biochemical, Lycopersicum esculentum. As to conditions: for ability to phosphorylate the deoxyribonucleoside (in words): pGEX-2T-TOM-ΔNdCK/dGK. On the procedure: (§5) The E. coli strain KY895 (F^−, tdk-1, ilv) [Knecht W, Munch-Petersen B and Piskur J: Identification of residues involved in the specificity and regulation of the highly efficient multisubstrate deoxyribonucleoside kinase from Drosophila melanogaster; J. Mol. Biol. 2000 301 827-837] was transformed by various expression plasmids using standard techniques. Transformed KY895 strains were grown to an OD600 nm of 0.5-0.6 in LB/Ampicillin (100 μg/ml) medium at 37° C., and protein expression was induced by addition of 100 μM IPTG. The cells were further grown for 4 hours at 25° C. and subsequently harvested by centrifugation.
as §2
(§6) Deoxyribonucleoside kinase activities were determined in the KY895 extracts by initial velocity measurements based on four time samples by the DE-81 filter paper assay using tritium-labelled nucleoside substrates. 4 to 20 μg extracts were used in the assays. The assay was done as described by Munch-Petersen et al. [Munch-Petersen, B., Knecht, W, Lenz, C., Sondergaard, L. & Piskur, J: Functional expression of a multisubstrate deoxyribonucleoside kinase from Drosophila melanogaster and its C-terminal deletion mutants; J. Biol. Chem. 2000 275 6673-6679].
(§7) The protein concentration was determined according to Bradford with BSA as standard protein [Bradford M M: A rapid and sensitive method for the quantitation of microgram quantities of protein utilizing the principle of protein-dye binding; Anal. Biochem. 1976 72 248-254]. SDS-PAGE was done according to the procedure of Laemmli [Laemmli U K: Cleavage of structural proteins during the assembly of the head of bacteriophage T4; Nature 1970 227 680-685], and proteins were visualized by Coomassie staining to verify recombinant protein expression.
as §4

Test [4] concerns C-terminally deleted tomato dNK enzyme (TOM-dCK/dGKΔC). Nature of the test: Deoxyribonucleoside kinase activity in extract of KY895 transformed with pGEX-2T-TOM-dCK/dGKΔC. Type of test: biochemical, Lycopersicum esculentum. As to conditions: for Deoxyribonucleoside kinase activity (relative): highest specific activity in extract = 100%. On the procedure: as §5, §2, §6, §7, §4

The mark [5] stands for this setting: extract of pGEX-2T-TOM-dCK/dGKΔC transformant, substrate 100 μM.

As to `Cc1cn([C@H]2C[C@H](O)[C@@H](CO)O2)c(=O)[nH]c1=O` [dThd, thymidine], the “ability to phosphorylate the deoxyribonucleoside (in words)” value (from here on “ability”) in test [1], in test [2] and in test [3] was “not” throughout. Moreover, in test [4] (setting [5]), the “specific activity corresponding to 100%” value is “(0.27) mU/mg”. The “Deoxyribonucleoside kinase activity (relative)” value in test [4] (setting [5]) turned out to be 100%. The “substrate conversion (in words)” value in test [4] (pGEX-2T-TOM-dCK/dGKΔC) is “fastest converted substrate”.

Consider `Nc1ccn([C@H]2C[C@H](O)[C@@H](CO)O2)c(=O)n1` [dCyd, deoxycytidine], for which, in test [3], the “ability” value is “able to phosphorylate”.

`Nc1nc2c(ncn2[C@H]2C[C@H](O)[C@@H](CO)O2)c(=O)[nH]1` [dGuo, deoxyguanosine]: the “Deoxyribonucleoside kinase activity (relative)” value in test [1] (extract of pGEX-2T-AT-dCK/dGK transformant, substrate 100 μM, highest specific activity in extract = 100%) came to 91%; in test [2] (extract of pGEX-2T-TOM-dCK/dGK transformant, substrate 100 μM, highest specific activity in extract = 100%), 100%; in test [3] (extract of pGEX-2T-TOM-ΔNdCK/dGK transformant, substrate 100 μM, highest specific activity in extract = 100%), 100%; in test [4] (setting [5]), 74%. The “ability” value in test [1], in test [2] and in test [3] was “able to phosphorylate” in each case. Moreover, the “specific activity corresponding to 100%” value in test [2] (extract of pGEX-2T-TOM-dCK/dGK transformant, substrate 100 μM) is “(3.3) mU/mg”; in test [3] (extract of pGEX-2T-TOM-ΔNdCK/dGK transformant, substrate 100 μM), “(0.32) mU/mg”.
